According to US11685723B2, “Antibacterial agents: O-alkyl-deuterated pyronins” (Rutgers, the State University of New Jersey, priority 2018, dated 2023):
Values after ≈ are worked out from the molar mass of the structure shown. Read-outs that look alike come from different tables or passages of the source.

Legend:
[1] = Metabolic stability, mouse liver microsomes; assay type: in vitro ADME; conditions: CD-1 mouse liver microsomes 1 mg/ml, 1 mM NADPH, pH 7.4, 37° C.
Description: (§1) Test compounds were incubated with mouse liver microsomes (CD-1; male and female pooled; 1 mg/ml) or human liver microsomes (male; 1 mg/ml) in 50 mM potassium phosphate, pH 7.4, and 1 mM NADPH at 37° C. Aliquots were removed at 0, 15, 30, 60, 90 and 120 min, and amounts of test compounds remaining were determined by LC-MS/MS. Half lives (t0.5) were calculated as t0.5=−0.693/k, where k is the slope of the linear regression of the natural logarithms of percentages of test compounds remaining vs. time.

[2] = Metabolic stability, human liver microsomes; assay type: in vitro ADME; conditions: human liver microsomes (male) 1 mg/ml, 1 mM NADPH, pH 7.4, 37° C.
Description: as §1

[3] = biological target: E. coli RNA polymerase σ70 holoenzyme (Escherichia coli, UniProt P0A8T7+P0A8V2); test: Fluorescence-detected inhibition of bacterial RNA polymerase; assay type: biochemical
Description: Fluorescence-detected RNA polymerase assays with E. coli RNA polymerase were performed by a modification of the procedure of Kuhlman et al., 2004 [Kuhlman, P., Duff, H. & Galant, A. (2004) A fluorescence-based assay for multisubunit DNA-dependent RNA polymerases. Anal. Biochem. 324, 183-190]. Reaction mixtures contained (20 μl): 0-100 nM test compound, 75 nM E. coli RNA polymerase σ^70holoenzyme, 20 nM 384 bp DNA fragment containing the bacteriophage T4 N25 promoter, 100 μM ATP, 100 μM GTP, 100 μM UTP, 100 μM CTP, 50 mM Tris-HCl, pH 8.0, 100 mM KCl, 10 mM MgCl2, 1 mM DTT, 10 μg/ml bovine serum albumin, and 5.5% glycerol. Reaction components other than DNA and NTPs were pre-incubated for 10 min at 37° C. Reactions were carried out by addition of DNA and incubation for 5 min at 37° C., followed by addition of NTPs and incubation for 60 min at 37° C. DNA was removed by addition of 1 μl 5 mM CaCl2 and 2 U DNaseI (Ambion, Inc.), followed by incubation for 90 min at 37° C. RNA was quantified by addition of 100 μl RiboGreen RNA Quantitation Reagent (Invitrogen, Inc.; 1:500 dilution in Tris-HCl, pH 8.0, 1 mM EDTA), followed by incubation for 10 min at 25° C., followed by measurement of fluorescence intensity [excitation wavelength=485 nm and emission wavelength=535 nm; QuantaMaster QM1 spectrofluorometer (PTI, Inc.)]. IC50 is defined as the concentration of inhibitor resulting in 50% inhibition of RNA polymerase activity.

[4] = tested on: Mycobacterium tuberculosis H37Rv; test: Inhibition of growth of Mycobacterium tuberculosis (microplate Alamar Blue assay); assay type: cell-based; conditions: read-out: in vitro antibacterial activity M. tuberculosis H37Rv MIC
[5] = tested on: Staphylococcus aureus ATCC 12600; test: Inhibition of growth of Staphylococcus aureus (spiral gradient endpoint assay); assay type: cell-based; conditions: read-out: in vitro antibacterial activity S. aureus ATCC 12600 MIC
Excerpt: Minimum inhibitory concentrations (MICs) for Staphylococcus aureus ATCC 12600 were quantified using spiral gradient endpoint assays, essentially as described [Wallace, A. and Corkill, J. (1989) Application of the spiral plating method to study antimicrobial action. J. Microbiol. Meths. 10, 303-310; Paton, J., Holt, A., and Bywater, M. (1990) Measurement of MICs of antibacterial agents by spiral gradient endpoint compared with conventional dilution methods. Int. J. Exp. Clin. Chemother. 3, 31-38; Schalkowsky S. (1994) Measures of susceptibility from a spiral gradient of drug concentrations. Adv. Exp. Med. Biol. 349, 107-120]. Assays employed exponential-gradient plates containing 150 mm×4 mm Mueller-Hinton II cation-adjusted agar and 0.4-100 μg/ml of test compound. Plates were prepared using an Autoplate 4000 spiral plater (Spiral Biotech, Inc.). Saturated overnight cultures were swabbed radially onto plates, and plates were incubated for 16 h at 37° C. For each culture, the streak length was measured using a clear plastic template (Spiral Biotech, Inc.), the test-compound concentration at the streak endpoint was calculated using the program SGE (Spiral Biotech, Inc.), and the MIC was defined as the calculated test-compound concentration at the streak endpoint.

[6] = In vivo pharmacokinetics in mice (intravenous administration); conditions: CD-1 mice, 2.5 mg/kg
Description: Test compounds (2.5 mg/kg; 0.1 ml of 0.625 mg/ml solution in 5% dimethylacetamide and 4% Cremophor EL in 100 mM sodium phosphate, pH 7.4) were administered to mice (CD-1; […]; n=3) by intravenous injection into a tail vein at t=0 h. Blood samples were collected by tail-vein bleed (CB 300 K2E tubes; Sarstedt) at t=0.02, 0.05, 1, 3, 5, and 8 h, and plasma concentrations of test compounds were determined by LC-MS/MS.

[7] = 75 nM E. coli RNAP holoenzyme, RiboGreen fluorescence, read-out: in vitro RNAP-inhibitory activity E. coli RNAP IC50
[8] = ATCC12600, spiral gradient endpoint assay, 16 h at 37° C.

E. coli RNA polymerase σ70 holoenzyme, sequence (P0A8V2 whole entry, the tested form may be a part): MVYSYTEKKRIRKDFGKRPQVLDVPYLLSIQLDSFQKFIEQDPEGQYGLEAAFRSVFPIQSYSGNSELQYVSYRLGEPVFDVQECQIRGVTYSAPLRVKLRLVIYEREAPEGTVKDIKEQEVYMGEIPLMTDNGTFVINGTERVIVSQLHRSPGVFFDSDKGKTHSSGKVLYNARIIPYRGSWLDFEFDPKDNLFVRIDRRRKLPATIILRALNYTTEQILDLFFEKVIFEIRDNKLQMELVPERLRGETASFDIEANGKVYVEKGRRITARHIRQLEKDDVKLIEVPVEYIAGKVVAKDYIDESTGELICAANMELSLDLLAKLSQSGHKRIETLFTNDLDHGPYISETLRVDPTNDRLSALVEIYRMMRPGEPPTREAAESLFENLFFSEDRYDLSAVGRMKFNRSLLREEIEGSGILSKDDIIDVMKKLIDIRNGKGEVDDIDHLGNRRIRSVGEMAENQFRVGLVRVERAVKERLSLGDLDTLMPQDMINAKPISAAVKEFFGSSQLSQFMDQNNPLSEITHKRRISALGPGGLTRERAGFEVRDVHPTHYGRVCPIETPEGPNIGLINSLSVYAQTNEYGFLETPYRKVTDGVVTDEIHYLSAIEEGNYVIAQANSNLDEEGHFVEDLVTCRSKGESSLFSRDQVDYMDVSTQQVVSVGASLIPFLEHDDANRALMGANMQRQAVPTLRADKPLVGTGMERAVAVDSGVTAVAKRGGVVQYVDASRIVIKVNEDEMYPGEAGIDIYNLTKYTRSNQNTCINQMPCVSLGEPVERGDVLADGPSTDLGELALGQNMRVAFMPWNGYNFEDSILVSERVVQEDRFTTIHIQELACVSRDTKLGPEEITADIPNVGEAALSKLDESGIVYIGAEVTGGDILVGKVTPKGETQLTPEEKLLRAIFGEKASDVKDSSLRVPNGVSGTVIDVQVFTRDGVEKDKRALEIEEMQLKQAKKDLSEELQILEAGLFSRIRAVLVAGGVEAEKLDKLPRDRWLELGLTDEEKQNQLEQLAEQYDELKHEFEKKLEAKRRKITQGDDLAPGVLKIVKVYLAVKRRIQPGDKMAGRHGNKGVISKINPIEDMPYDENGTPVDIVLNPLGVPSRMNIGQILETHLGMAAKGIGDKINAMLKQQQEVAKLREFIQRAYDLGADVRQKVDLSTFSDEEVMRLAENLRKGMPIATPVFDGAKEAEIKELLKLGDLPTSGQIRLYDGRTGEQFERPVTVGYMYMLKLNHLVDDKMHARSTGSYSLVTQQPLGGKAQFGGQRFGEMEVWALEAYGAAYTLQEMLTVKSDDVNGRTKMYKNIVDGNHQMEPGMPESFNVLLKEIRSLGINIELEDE
E. coli RNA polymerase σ70 holoenzyme, sequence (P0A8T7 whole entry, the tested form may be a part): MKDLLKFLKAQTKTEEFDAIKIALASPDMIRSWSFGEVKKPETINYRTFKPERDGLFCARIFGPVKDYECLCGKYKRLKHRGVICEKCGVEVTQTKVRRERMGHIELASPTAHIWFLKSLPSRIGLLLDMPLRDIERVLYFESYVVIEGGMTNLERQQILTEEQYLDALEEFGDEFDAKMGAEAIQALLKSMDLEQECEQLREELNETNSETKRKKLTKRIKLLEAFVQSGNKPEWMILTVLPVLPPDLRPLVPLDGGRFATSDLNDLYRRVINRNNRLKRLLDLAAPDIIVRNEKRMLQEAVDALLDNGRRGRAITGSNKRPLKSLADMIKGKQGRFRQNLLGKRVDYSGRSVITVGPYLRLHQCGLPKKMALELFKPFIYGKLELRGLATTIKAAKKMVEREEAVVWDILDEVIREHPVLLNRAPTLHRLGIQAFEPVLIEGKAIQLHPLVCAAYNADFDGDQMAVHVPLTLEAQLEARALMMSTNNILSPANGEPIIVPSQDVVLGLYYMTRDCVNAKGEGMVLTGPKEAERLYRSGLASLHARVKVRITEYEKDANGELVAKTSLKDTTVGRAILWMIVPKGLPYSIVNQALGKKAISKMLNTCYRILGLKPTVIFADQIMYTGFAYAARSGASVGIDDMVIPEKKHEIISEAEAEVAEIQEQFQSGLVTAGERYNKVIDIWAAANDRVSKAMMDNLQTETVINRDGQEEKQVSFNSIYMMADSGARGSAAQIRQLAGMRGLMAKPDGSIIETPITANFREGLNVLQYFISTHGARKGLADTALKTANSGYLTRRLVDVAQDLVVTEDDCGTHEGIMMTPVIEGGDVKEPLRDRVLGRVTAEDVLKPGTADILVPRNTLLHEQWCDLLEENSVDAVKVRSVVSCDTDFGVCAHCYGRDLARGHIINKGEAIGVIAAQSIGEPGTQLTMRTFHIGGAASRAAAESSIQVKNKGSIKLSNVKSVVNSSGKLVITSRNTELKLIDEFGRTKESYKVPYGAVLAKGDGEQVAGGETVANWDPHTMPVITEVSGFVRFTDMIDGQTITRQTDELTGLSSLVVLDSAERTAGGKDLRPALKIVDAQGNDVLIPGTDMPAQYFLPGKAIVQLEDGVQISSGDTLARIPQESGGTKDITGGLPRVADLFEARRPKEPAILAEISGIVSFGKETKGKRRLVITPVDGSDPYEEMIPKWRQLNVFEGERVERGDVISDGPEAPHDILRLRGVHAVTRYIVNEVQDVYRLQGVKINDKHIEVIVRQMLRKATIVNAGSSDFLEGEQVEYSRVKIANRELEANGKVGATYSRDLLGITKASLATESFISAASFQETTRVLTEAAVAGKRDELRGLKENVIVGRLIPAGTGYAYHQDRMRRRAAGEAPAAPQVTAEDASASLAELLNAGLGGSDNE
E. coli RNA polymerase σ70 holoenzyme, sequence (P0A7Z4 whole entry partner, the tested form may be a part): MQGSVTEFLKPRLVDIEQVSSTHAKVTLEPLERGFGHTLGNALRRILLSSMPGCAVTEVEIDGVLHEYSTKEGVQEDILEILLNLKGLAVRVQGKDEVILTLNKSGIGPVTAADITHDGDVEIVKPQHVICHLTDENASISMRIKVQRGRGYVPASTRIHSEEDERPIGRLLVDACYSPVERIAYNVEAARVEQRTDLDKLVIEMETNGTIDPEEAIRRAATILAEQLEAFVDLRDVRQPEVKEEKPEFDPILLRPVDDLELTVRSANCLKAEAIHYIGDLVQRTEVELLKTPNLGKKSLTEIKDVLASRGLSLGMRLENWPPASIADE
E. coli RNA polymerase σ70 holoenzyme, sequence (P0A800 2-91 partner limits assumed): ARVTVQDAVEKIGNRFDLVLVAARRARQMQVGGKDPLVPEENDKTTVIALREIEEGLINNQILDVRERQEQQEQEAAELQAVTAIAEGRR
E. coli RNA polymerase σ70 holoenzyme, sequence (P00579 whole entry partner, the tested form may be a part): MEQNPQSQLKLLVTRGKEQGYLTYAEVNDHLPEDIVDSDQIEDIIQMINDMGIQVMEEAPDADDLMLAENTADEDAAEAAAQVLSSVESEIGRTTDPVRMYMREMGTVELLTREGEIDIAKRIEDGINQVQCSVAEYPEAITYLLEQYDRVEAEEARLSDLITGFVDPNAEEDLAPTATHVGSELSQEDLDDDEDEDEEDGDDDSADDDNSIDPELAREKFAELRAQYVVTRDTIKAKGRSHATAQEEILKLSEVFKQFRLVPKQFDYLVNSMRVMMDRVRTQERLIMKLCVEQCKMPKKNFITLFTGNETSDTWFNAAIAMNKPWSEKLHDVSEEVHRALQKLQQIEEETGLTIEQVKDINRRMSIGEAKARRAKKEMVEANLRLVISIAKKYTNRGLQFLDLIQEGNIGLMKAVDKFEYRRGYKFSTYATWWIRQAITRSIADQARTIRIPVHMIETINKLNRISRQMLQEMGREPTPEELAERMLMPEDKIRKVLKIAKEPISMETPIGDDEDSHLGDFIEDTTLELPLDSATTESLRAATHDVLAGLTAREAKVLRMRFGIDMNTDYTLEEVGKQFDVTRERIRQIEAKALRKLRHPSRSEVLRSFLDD

Structure (SMILES) | mouse liver microsome t0.5 [1] [min] | human liver microsome t0.5 [2] [min] | IC50 [3, 7] [nM] | MIC [4] [µg/mL] | MIC [5, 8] [µg/mL] | plasma t0.5 [6] [h] | IC50 [3] [nM] | MIC ([5]; ATCC12600, 16 h) [µg/mL]
[2H]C([2H])([2H])OC(=O)N/C=C/CCC(C)c1cc(O)c(C(=O)/C(C)=C/C=C(\C)CCCC)c(=O)o1 (centres unmarked) [Example 12] | 66 | 4.2 | – | – | – | – | – | –
[2H]C([2H])([2H])OC(=O)N/C=C/CCCc1cc(O)c(C(=O)/C(C)=C/c2cnc(Oc3ccc(F)c(F)c3)s2)c(=O)o1 [Example 20] | – | – | 3 | 0.78 (≈ 1.46 µM) | 0.26 (≈ 0.485 µM) | – | – | –
[2H]C([2H])([2H])OC(=O)N/C=C/CCCc1cc([O-])c(C(=O)/C(C)=C/c2cnc(Oc3ccc(F)cc3)s2)c(=O)o1.[Na+] [Example 9] | >120 | 29 | – | 0.39 | – | 3.9 | 3 | 0.41
[2H]C([2H])([2H])OC(=O)N/C=C/CCCc1cc(O)c(C(=O)/C(C)=C/c2cnc(Oc3ccc(F)c(-c4ccccc4)c3)s2)c(=O)o1 [Example 19] | – | – | 1.2 | 25 (≈ 42.1 µM) | 0.93 (≈ 1.57 µM) | – | – | –
[2H]C([2H])([2H])OC(=O)N/C=C/CCCc1cc(O)c(C(=O)/C(C)=C/c2cnc(Oc3ccc(F)c(Br)c3)s2)c(=O)o1 [Example 18] | – | – | 1.6 | 0.78 (≈ 1.31 µM) | 0.35 (≈ 0.587 µM) | – | – | –
[2H]C([2H])([2H])OC(=O)N/C=C/CCCc1cc(O)c(C(=O)/C(C)=C/c2cnc(Oc3ccc(F)cc3)s2)c(=O)o1 [Example 8] | >120 | 21 | 3 | 0.78 (≈ 1.51 µM) | 0.25 (≈ 0.483 µM) | 2.7 | – | –
[2H]C([2H])([2H])OC(=O)N/C=C/CCC(C)c1cc(O)c(C(=O)/C(C)=C/c2sc(Oc3ccc(F)cc3)nc2C)c(=O)o1 (centres unmarked) [Example 4] | 59 | 16 | 6.8 | – | 0.24 (≈ 0.44 µM) | 2.7 | – | –
[2H]C([2H])([2H])OC(=O)N/C=C/CCCc1cc(O)c(C(=O)/C(C)=C/c2cnc(Oc3ccc(-c4ccccc4)cc3)s2)c(=O)o1 [Example 16] | 46 | 44 | 18 | > 50 | > 8 | – | – | –
[2H]C([2H])([2H])OC(=O)N/C=C/CCC(C)c1cc(O)c(C(=O)/C(C)=C/c2cnc(Oc3ccc(F)cc3)s2)c(=O)o1 (centres unmarked) [Example 5] | >120 | 21 | 5.3 | 1.56 (≈ 2.93 µM) | 0.3 (≈ 0.564 µM) | 3.0 | – | –
[2H]C([2H])([2H])OC(=O)N/C=C/CCCc1cc(O)c(C(=O)/C(C)=C/c2cnc(Oc3ccc(F)c(Cl)c3)s2)c(=O)o1 [Example 14] | 65 | 21 | 2.9 | 0.78 (≈ 1.41 µM) | 0.19 (≈ 0.344 µM) | 1.8 | – | –
COC(=O)N/C=C/CCC(C)c1cc(O)c(C(=O)/C(C)=C/c2cnc(Oc3ccc(F)cc3)s2)c(=O)o1 (centres unmarked) [Example 2] | 60 | 14 | 9.6 | 3.12 (≈ 5.91 µM) | 0.5 (≈ 0.946 µM) | 2.8 | – | –
[2H]C([2H])([2H])OC(=O)N/C=C/CCCc1cc(O)c(C(=O)/C(C)=C/c2sc(Oc3ccc(F)cc3)nc2C)c(=O)o1 [Example 7] | >120 | 8.3 | 2 | 0.78 (≈ 1.47 µM) | 0.19 (≈ 0.357 µM) | 2.6 | – | –
[2H]C([2H])([2H])OC(=O)N/C=C/CCCc1cc([O-])c(C(=O)/C(C)=C/c2cnc(Oc3ccc(-c4ccccc4)cc3)s2)c(=O)o1.[Na+] [Example 17] | – | – | – | > 50 | – | – | 49 | –
[2H]C([2H])([2H])OC(=O)N/C=C/CCCc1cc([O-])c(C(=O)/C(C)=C/c2cnc(Oc3ccc(F)c(Cl)c3)s2)c(=O)o1.[Na+] [Example 15] | – | – | – | 0.78 | – | – | 2.9 | 0.17
COC(=O)N/C=C/CCC(C)c1cc(O)c(C(=O)/C(C)=C/c2sc(Oc3ccc(F)cc3)nc2C)c(=O)o1 (centres unmarked) [Example 1] | 21 | 8.3 | 5.6 | 3.12 (≈ 5.76 µM) | 0.35 (≈ 0.645 µM) | 2.7 | – | –
COC(=O)N/C=C/CCC(C)c1cc(O)c(C(=O)/C(C)=C/C=C(\C)CCC(F)(F)F)c(=O)o1 (centres unmarked) [Example 11, reference compound] | 100 | 25 | 12 | – | – | – | – | –
COC(=O)N/C=C/CCCc1cc(O)c(C(=O)/C(C)=C/c2cnc(Oc3ccc(F)cc3)s2)c(=O)o1 [Example 6] | >120 | 8.6 | 8.4 | 0.78 (≈ 1.52 µM) | 0.73 (≈ 1.42 µM) | 2.4 | – | –
COC(=O)N/C=C/CCCc1cc(O)c(C(=O)/C(C)=C/c2sc(Oc3ccc(F)cc3)nc2C)c(=O)o1 [Example 3] | 110 | 5.6 | 4.5 | 1.56 (≈ 2.95 µM) | 0.17 (≈ 0.322 µM) | 2.5 | – | –
CCCC/C(C)=C/C=C(\C)C(=O)c1c(O)cc(C(C)CC/C=C/NC(=O)OC)oc1=O (racemic) [Example 10, (±)Myxopyronin B, reference compound] | 21 | 1.7 | 13 | – | – | – | – | –
[2H]C([2H])([2H])OC(=O)N/C=C/CCC(C)c1cc(O)c(C(=O)/C(C)=C/C=C(\C)CCC(F)(F)F)c(=O)o1 (centres unmarked) [Example 13] | >120 | 33 | 23 | – | – | – | – | –
